Data published in patent US9630931B2, “Pharmaceutically active pyrazine derivatives” (Sentinel Oncology Limited, priority 2011, dated 2017).
Counter-ions that a name gives are not always drawn.

What was measured:
[1] = test system: triple negative negative breast cancer cells; settings: cited from earlier work
[2] = test system: thirty ovarian cancer cell lines; settings: cited from earlier work
[3] = test system: MYC oncogene driven murine spontaneous cancer model; settings: cited from earlier work
Chk-1 kinase = Chk-1 kinase (Homo sapiens (Human), UniProt O14757); assay: Chk-1 kinase inhibiting activity (33P-ATP radiometric filter assay, CHKtide substrate); type: biochemical; settings: recombinant full length GST-tagged CHK-1 0.5 nM, CHKtide 20 μM, 120 minutes at room temperature; read-out: IC50 against Chk-1 kinase
Chk-1 kinase, sequence (O14757 whole entry): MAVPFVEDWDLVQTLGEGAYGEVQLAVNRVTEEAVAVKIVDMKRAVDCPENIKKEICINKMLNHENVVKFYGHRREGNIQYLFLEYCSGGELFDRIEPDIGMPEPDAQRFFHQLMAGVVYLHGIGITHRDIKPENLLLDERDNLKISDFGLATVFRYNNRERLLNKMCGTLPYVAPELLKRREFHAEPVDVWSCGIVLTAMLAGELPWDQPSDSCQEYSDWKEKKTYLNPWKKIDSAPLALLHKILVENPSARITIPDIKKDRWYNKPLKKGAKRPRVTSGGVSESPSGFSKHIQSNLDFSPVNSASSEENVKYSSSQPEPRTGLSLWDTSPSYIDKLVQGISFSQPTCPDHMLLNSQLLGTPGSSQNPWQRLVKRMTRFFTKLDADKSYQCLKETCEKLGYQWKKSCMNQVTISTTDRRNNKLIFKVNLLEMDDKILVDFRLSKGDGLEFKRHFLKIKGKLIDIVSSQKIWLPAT
Method: The compounds of the invention were tested for activity against Chk-1 kinase using the materials and protocols set out below.
Base Reaction buffer: 20 mM Hepes (pH 7.5), 10 mM MgCl2, 1 mM EGTA, 0.02% Brij35, 0.02 mg/ml BSA, 0.1 mM Na3VO4, 2 mM DTT, 1% DMSO
Required cofactors are added individually to each kinase reaction
(i) Prepare indicated substrate in freshly prepared Base Reaction Buffer
(ii) Deliver any required cofactors to the substrate solution above
(iii) Deliver indicated kinase into the substrate solution and gently mix
(iv) Deliver compounds in DMSO into the kinase reaction mixture
(v) Deliver ^33P-ATP (specific activity 0.01 μCi/μl final) into the reaction mixture to initiate the reaction.
(vi) Incubate kinase reaction for 120 minutes at room temperature
(vii) Reactions are spotted onto P81 ion exchange paper (Whatman #3698-915)
(viii) Wash filters extensively in 0.1% phosphoric acid.
(ix) Dry filters and measure counts in scintillation counter
Recombinant full length construct, N-terminal GST tagged, purified from insect cells.
No special measures were taken to activate this kinase.
Final concentration in assay=0.5 nM
Peptide sequence: [[…]]
Final concentration in assay=20 μM
No additional cofactors are added to the reaction mixture
From the results obtained by following the above protocol, the IC50 values against Chk-1 kinase of a number of the compounds of the Examples were determined and these are shown in Table 3.

MV4-11 cells = assay: Inhibition of cell growth in MV4-11 cells (Alamar blue, 72 h); type: cell-based; settings: Homo sapiens, 72 h incubation
Method: (§1) Studies were carried out to test the effect of compounds on the inhibition of cell growth in MOLM-13 and MV4-11 cells.
(§2) The following protocol was used:
(§3) (a) Cells were seeded in 96-well plates at cell densities of 2500/well (MOLM-13) and 10,000/well (MV4-11). Cells were then incubated overnight prior to addition of compound or vehicle control.
(§4) (b) Test compounds were prepared from 10 mM DMSO stocks to give a final concentration range of 10 μM, 3 μM, 1 μM, 0.3 μM, […], 0.03 μM, 0.01 μM, […] vehicle control. The DMSO content was constant at 0.1%.
(§5) (c) Test compounds were incubated with the cells for 72 h at 37° C. 5% CO2 in a humidified atmosphere.
(§6) (d) Alamar blue 10% (v/v) was then added and incubated for a further 4 h, and fluorescent product detected using the BMG FLUOstar plate reader.
(§7) (e) Media only background values were subtracted and the data analysed using a 4-parameter logistic equation in GraphPad Prism.

MOLM-13 cells = assay: Inhibition of cell growth in MOLM-13 cells (Alamar blue, 72 h); type: cell-based; settings: Homo sapiens, 72 h incubation
Method: as §1, §2, §3, §4, §5, §6, §7

IC50 (Chk-1 kinase) [nM]	IC50 (MV4-11 cells) [nM]	IC50 (MOLM-13 cells) [nM]	SMILES	growth of triple negative breast cancer cells [1]	growth of ovarian cancer cell lines [2]	single agent activity in MYC oncogene driven murine spontaneous cancer model [3]
0.1	386	240	COc1cc(CCNCC2CCNCC2)c(Cl)cc1NC(=O)Nc1cnc(C#N)cn1 [Example 1, 1-(5-Chloro-2-methoxy-4-{2-[(piperidin-4-ylmethyl)-amino]-ethyl}-phenyl)-3-(5-cyano-pyrazin-2-yl)-urea hydrochloride]			
0.65	80	35	COc1cc(CCN[C@@H](C)C2CCN(C(=O)C3CC3)CC2)c(Cl)cc1NC(=O)Nc1cnc(C#N)cn1 [Example 10, 1-(5-Chloro-4-{2-[(S)-1-(1-cyclopropane-carbonyl-piperidin-4-yl)-ethylamino]-ethyl}-2-methoxy-phenyl)-3-(5-cyano-pyrazin-2-yl)-urea hydrochloride]			
0.28	231	59	COc1cc(CCN[C@@H](C)C2CCN(S(C)(=O)=O)CC2)c(Cl)cc1NC(=O)Nc1cnc(C#N)cn1 [Example 11, 1-(5-Chloro-4-{2-[(S)-1-(1-methanesulfonyl-piperidin-4-yl)-ethylamino]-ethyl}-2-methoxy-phenyl)-3-(5-cyano-pyrazin-2-yl)-urea hydrochloride]			

The remaining lines, values behind:

SMILES	IC50 (Chk-1 kinase) [nM]	IC50 (MV4-11 cells) [nM]	IC50 (MOLM-13 cells) [nM]	growth of triple negative breast cancer cells [1]	growth of ovarian cancer cell lines [2]	single agent activity in MYC oncogene driven murine spontaneous cancer model [3]
Cn1cc(-c2[nH]c3cc(NC(=O)[C@H](N)C4CCCCC4)cc4c3c2C=NNC4=O)cn1 [PF-00477736]				inhibits the growth	inhibits the growth	selective single agent activity
CC(C)Oc1cc(CCNCCN2CCOCC2)c(Cl)cc1NC(=O)Nc1cnc(C#N)cn1 [Example 8, 1-{5-Chloro-2-isopropoxy-4-[2-(2-morpholin-4-yl-ethylamino)-ethyl]-phenyl}-3-(5-cyano-pyrazin-2-yl)-urea hydrochloride]	0.75	38	28			
COc1cc(CCNCC2CNCCO2)c(Cl)cc1NC(=O)Nc1cnc(C#N)cn1 (stereo not drawn) [Example 2, 1-(5-Chloro-2-methoxy-4-{2-[(morpholin-2-ylmethyl)-amino]-ethyl}-phenyl)-3-(5-cyano-pyrazin-2-yl)-urea hydrochloride]	0.09	209	26			
COc1cc(CCNCCN2CCOCC2)c(Cl)cc1NC(=O)Nc1cnc(C#N)cn1 [Example 7, 1-{5-Chloro-2-methoxy-4-[2-(2-morpholin-4-yl-ethylamino)-ethyl]-phenyl}-3-(5-cyano-pyrazin-2-yl)-urea hydrochloride]	0.8	295	113			
